Literature values, collected in patent US6132722A, “Recombinant antibody-enzyme fusion proteins” (Bristol-Myers Squibb Company, priority 1998, dated 2000).

Test system: 3677 melanoma xenografts
Details: drug alone, Kerr et al. 1995

COc1cccc2c1C(=O)c1c(O)c3c(c(O)c1C2=O)C[C@@](O)(C(=O)CO)C[C@@H]3O[C@H]1C[C@H](N)[C@H](O)[C@H](C)O1 [doxorubicin]
response of the 3677 tumor model to treatment: resistant
